pIC50: −log10 of the molar value.

The target of this experiment is T1, 5HTR2B (Homo sapiens, UniProt P41595).
T1 construct: host or cells: human Maverick/293 cells
T1 sequence (P41595 whole entry): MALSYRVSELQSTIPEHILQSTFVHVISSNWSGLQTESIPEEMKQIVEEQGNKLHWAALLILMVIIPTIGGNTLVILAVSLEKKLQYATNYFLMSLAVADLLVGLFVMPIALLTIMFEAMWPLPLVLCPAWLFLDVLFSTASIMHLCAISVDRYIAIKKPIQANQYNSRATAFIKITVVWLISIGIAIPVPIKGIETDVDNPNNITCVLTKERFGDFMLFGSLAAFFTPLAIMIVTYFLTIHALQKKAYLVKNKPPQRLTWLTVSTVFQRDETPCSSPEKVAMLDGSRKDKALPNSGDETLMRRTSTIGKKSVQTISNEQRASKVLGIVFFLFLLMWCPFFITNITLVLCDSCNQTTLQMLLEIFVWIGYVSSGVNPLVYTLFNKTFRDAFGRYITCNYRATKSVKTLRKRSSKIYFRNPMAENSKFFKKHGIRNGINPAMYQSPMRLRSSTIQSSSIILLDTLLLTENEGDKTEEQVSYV
Description: 5HTR2B antagonist activity, calcium mobilization assay in human Maverick/293 cells (serotonin as agonist). The class given is cell-based. Conditions: intracellular calcium, emission 525 nm, read-out: Ca assay IC50. The method, then: The 5HTR2B antagonist activity was measured using human Maverick/293 cells in a calcium mobilization assay. The measurement starting with plating human Maverick/293 cells (log phase) onto 96-well black and incubate at 37° C. overnight, Followed by starving cells for 2 h by changing complete medium to DMEM without FBS, removing the medium from the 96-well plate. Loading staining calcium buffer into each well and incubated the plate at 37° C. for 50 min. After removal of staining calcium buffer, diluted antagonist were added into the well, incubate 15 to 30 minutes. Dispense serotonin as the 5HTR2B agonists into each well. Intracellular calcium concentration is recorded for 80 seconds by monitoring an emission at a wavelength of 525 nm with an excitation wavelength of 485 nm. Inhibition efficiency of the cell line was determined following the equation: % Inhibition=100%−(D−B)/(S−B)*100%. (S: The peak value in the presence of agonist serotonin; D: The peak value in the presence of different dilution compound or serotonin; B: The peak value in the presence of calcium HBSS buffer only). […] A dose response curve was fitted using nonlinear regression model with a sigmoidal dose response. The IC50 was automatically produced by GraphPad Prism 5.0.
`COc1ccc(S(=O)(=O)NC2CC2)cc1C(=O)Nc1ccc(F)c(C)n1` [Compound 21, 5-(N-Cyclopropylsulfamoyl)-N-(5-fluoro-6-methylpyridin-2-yl)-2-methoxy benzamide]: the pIC50 was 8.80.

In the case of `COc1ccc(S(N)(=O)=O)cc1C(=O)Nc1ccc(F)c(C)n1` [Compound 22], the negative-log IC50 (pIC50) was 6.21.

`CNS(=O)(=O)c1ccc(OC)c(C(=O)Nc2ccc(F)c(C)n2)c1` [Compound 24]: the pIC50 is 7.33.

Regarding `COc1ccc(S(=O)(=O)NC(C)C)cc1C(=O)Nc1ccc(F)c(C)n1` [Compound 25, N-(5-Fluoro-6-methylpyridin-2-yl)-5-(N-isopropylsulfamoyl)-2-methoxy benzamide], the pIC50 is 8.85.

With `CCNS(=O)(=O)c1ccc(OC)c(C(=O)Nc2ccc(F)c(C)n2)c1` [Compound 26, 5-(N-Ethylsulfamoyl)-N-(5-fluoro-6-methylpyridin-2-yl)-2-methoxybenzamide], the pIC50 was 8.89.

On to `COc1ccc(S(=O)(=O)N[C@H]2CC[C@@H](O)CC2)cc1C(=O)Nc1ccc(F)c(C)n1` [Compound 27, N-(5-Fluoro-6-methylpyridin-2-yl)-5-(N-((cis)-4-hydroxycyclohexyl)sulfamoyl)-2-methoxybenzamide], for which the pIC50 was 8.96.

Regarding `COc1ccc(S(=O)(=O)N2CCCC2)cc1C(=O)Nc1ccc(F)c(C)n1` [Compound 30, N-(5-Fluoro-6-methylpyridin-2-yl)-2-methoxy-5-(pyrrolidin-1-ylsulfonyl) benzamide], the pIC50 was 7.62.

For the molecule `COc1ccc(S(=O)(=O)N[C@H]2C[C@@](C)(O)C2)cc1C(=O)Nc1ccc(F)c(C)n1` [Compound 31, N-(5-fluoro-6-methylpyridin-2-yl)-5-(N-((cis)-3-hydroxy-3-methylcyclobutyl)sulfamoyl)-2-methoxybenzamide], the pIC50 was 7.26.

With `COc1ccc(S(=O)(=O)N[C@@H](C)C(N)=O)cc1C(=O)Nc1ccc(F)c(C(F)F)c1` [Compound 34a, (S)-5-(N-(1-Amino-1-oxopropan-2-yl)sulfamoyl)-N-(3-(difluoromethyl)-4-fluorophenyl)-2-methoxybenzamide], the pIC50 was 8.85.

As for `COc1ccc(S(=O)(=O)N[C@H](C)C(N)=O)cc1C(=O)Nc1ccc(F)c(C(F)F)c1` [Compound 34b, (R)-5-(N-(1-Amino-1-oxopropan-2-yl)sulfamoyl)-N-(3-(difluoromethyl)-4-fluorophenyl)-2-methoxybenzamide], the pIC50 was 6.78.

For the molecule `COc1ccc(S(=O)(=O)N[C@@H](C)CO)cc1C(=O)Nc1ccc(F)c(C(F)F)c1` [Compound 35a, (S)—N-(3-(Difluoromethyl)-4-fluorophenyl)-5-(N-(1-hydroxypropan-2-yl)sulfamoyl)-2-methoxybenzamide], the pIC50 is 9.15.

For `COc1ccc(S(=O)(=O)N[C@H](C)CO)cc1C(=O)Nc1ccc(F)c(C(F)F)c1` [Compound 35b, (R)—N-(3-(Difluoromethyl)-4-fluorophenyl)-5-(N-(1-hydroxypropan-2-yl)sulfamoyl)-2-methoxybenzamide], the pIC50 was 8.37.

Regarding `COc1ccc(S(=O)(=O)NC2(C)COC2)cc1C(=O)Nc1ccc(F)c(C(F)F)c1` [Compound 36, N-(3-(Difluoromethyl)-4-fluorophenyl)-2-methoxy-5-(N-(3-methyloxetan-3-yl)sulfamoyl)benzamide], the pIC50 was 8.57.

On to `COc1ccc(S(=O)(=O)N[C@H]2CCCOC2)cc1C(=O)Nc1ccc(F)c(C(F)F)c1` [Compound 37, (S)—N-(3-(Difluoromethyl)-4-fluorophenyl)-2-methoxy-5-(N-(tetrahydro-2H-pyran-3-yl)sulfamoyl)benzamide], for which the pIC50 was 9.10.

`COc1ccc(S(=O)(=O)N[C@H]2CC[C@@H](O)CC2)cc1C(=O)Nc1ccc(F)c(C(F)F)c1` [Compound 38, N-(3-(Difluoromethyl)-4-fluorophenyl)-5-(N-((cis)-4-hydroxycyclohexyl)sulfamoyl)-2-methoxybenzamide]: the pIC50 was 9.22.

Consider `COc1ccc(S(=O)(=O)NC2COC2)cc1C(=O)Nc1ccc(F)c(C(F)F)c1` [Compound 39, N-(3-(Difluoromethyl)-4-fluorophenyl)-2-methoxy-5-(N-(oxetan-3-yl)sulfamoyl)benzamide], for which the pIC50 is 8.44.

Turning to `COc1ccc(S(=O)(=O)N[C@H]2CCCOC2)cc1C(=O)Nc1ccc(F)cc1` [Compound 41, (S)—N-(4-Fluorophenyl)-2-methoxy-5-(N-(tetrahydro-2H-pyran-3-yl)sulfamoyl) benzamide], the pIC50 is 9.15.

For `COc1ccc(S(=O)(=O)NC2(C)COC2)cc1C(=O)Nc1ccc(F)cc1` [Compound 42, N-(4-Fluorophenyl)-2-methoxy-5-(N-(3-methyloxetan-3-yl)sulfamoyl)benzamide], the pIC50 was 8.66.

On to `COc1ccc(S(=O)(=O)NC2COC2)cc1C(=O)Nc1ccc(F)cc1` [Compound 43, N-(4-Fluorophenyl)-2-methoxy-5-(N-(oxetan-3-yl)sulfamoyl)benzamide], for which the pIC50 is 8.14.

In the case of `COc1ccc(S(=O)(=O)NC2CC[C@H](O)C2)cc1C(=O)Nc1ccc(F)cc1` (stereo partly shown) [Compound 45b], the pIC50 was 8.72.

With `COc1ccc(S(=O)(=O)N[C@H](C)C(N)=O)cc1C(=O)Nc1ccc(F)cc1` [Compound 46a, (R)-5-(N-(1-Amino-1-oxopropan-2-yl)sulfamoyl)-N-(4-fluorophenyl)-2-methoxybenzamide], the pIC50 was 8.82.

On to `COc1ccc(S(=O)(=O)N[C@@H](C)C(N)=O)cc1C(=O)Nc1ccc(F)cc1` [Compound 46b, (S)-5-(N-(1-Amino-1-oxopropan-2-yl)sulfamoyl)-N-(4-fluorophenyl)-2-methoxybenzamide], for which the pIC50 is 8.74.

As for `COc1ccc(S(=O)(=O)NC2CCC2)cc1C(=O)Nc1ccc(F)cc1` [Compound 47, 5-(N-Cyclobutylsulfamoyl)-N-(4-fluorophenyl)-2-methoxybenzamide], the pIC50 is 9.30.

Take `COc1ccc(S(=O)(=O)NC2CC2)cc1C(=O)Nc1ccc(F)cc1` [Compound 48, 5-(N-Cyclopropylsulfamoyl)-N-(4-fluorophenyl)-2-methoxybenzamide]: the pIC50 is 8.57.

Turning to `COc1ccc(S(=O)(=O)N[C@@H](C)CO)cc1C(=O)Nc1ccc(F)cc1` [Compound 49a, (S)—N-(4-Fluorophenyl)-5-(N-(1-hydroxypropan-2-yl)sulfamoyl)-2-methoxybenzamide], the pIC50 was 8.47.

`COc1ccc(S(=O)(=O)N[C@H](C)CO)cc1C(=O)Nc1ccc(F)cc1` [Compound 49b, (R)—N-(4-Fluorophenyl)-5-(N-(1-hydroxypropan-2-yl)sulfamoyl)-2-methoxybenzamide]: the pIC50 was 8.05.

Regarding `COc1ccc(S(=O)(=O)NC2(C(F)(F)F)CC2)cc1C(=O)Nc1ccc(F)cc1` [Compound 50, N-(4-Fluorophenyl)-2-methoxy-5-(N-(1-(trifluoromethyl)cyclopropyl)sulfamoyl)benzamide], the pIC50 is 8.12.

For the molecule `COc1ccc(S(=O)(=O)NC2CCCC2)cc1C(=O)Nc1ccc(F)cc1` [Compound 51, 5-(N-Cyclopentylsulfamoyl)-N-(4-fluorophenyl)-2-methoxybenzamide], the pIC50 was 9.00.

In the case of `COc1ccc(S(=O)(=O)N[C@@H](C)CO)cc1C(=O)Nc1ccc(F)cc1` [Compound 52a, (S)—N-(4-fluorophenyl)-5-(N-(1-hydroxypropan-2-yl)sulfamoyl)-2-methoxybenzamide], the pIC50 was 7.30.

Take `COc1ccc(S(=O)(=O)N[C@H](C)CO)cc1C(=O)Nc1ccc(F)cc1` [Compound 52b, (R)—N-(4-fluorophenyl)-5-(N-(1-hydroxypropan-2-yl)sulfamoyl)-2-methoxybenzamide]: the pIC50 is 8.35.

Regarding `COc1ccc(S(=O)(=O)N[C@H]2CC[C@@H](O)CC2)cc1C(=O)Nc1ccc(F)cc1` [Compound 53, N-(4-Fluorophenyl)-5-(N-((cis)-4-hydroxycyclohexyl)sulfamoyl)-2-methoxybenzamide], the pIC50 is 9.52.

Regarding `COc1ccc(S(=O)(=O)N[C@@H](C)CO)cc1C(=O)Nc1ccccc1Cl` [Compound 55a, (S)—N-(2-Chlorophenyl)-5-(N-(1-hydroxypropan-2-yl)sulfamoyl)-2-methoxy benzamide], the pIC50 was 9.52.

`COc1ccc(S(=O)(=O)N[C@H](C)CO)cc1C(=O)Nc1ccccc1Cl` [Compound 55b, (R)—N-(2-Chlorophenyl)-5-(N-(1-hydroxypropan-2-yl)sulfamoyl)-2-methoxy benzamide]: the pIC50 was 10.00.

Take `COc1ccc(S(=O)(=O)NC2CC[C@H](O)C2)cc1C(=O)Nc1ccccc1Cl` (stereo partly shown) [Compound 57a]: the pIC50 was 9.70.

For the molecule `COc1ccc(S(=O)(=O)NC2CC[C@@H](O)C2)cc1C(=O)Nc1ccccc1Cl` (stereo partly drawn) [Compound 57b, N-(2-Chlorophenyl)-5-(N-((cis)-3-hydroxycyclopentyl)sulfamoyl)-2-methoxy benzamide], the pIC50 was 9.70.

Turning to `COc1ccc(S(=O)(=O)NC2(C)COC2)cc1C(=O)Nc1ccccc1Cl` [Compound 58, N-(2-Chlorophenyl)-2-methoxy-5-(N-(3-methyloxetan-3-yl)sulfamoyl) benzamide], the pIC50 is 9.70.

Turning to `COc1ccc(S(=O)(=O)N[C@@H](C)C(N)=O)cc1C(=O)Nc1ccccc1Cl` [Compound 59a], the pIC50 was 9.70.

Usually pIC50 stands for the IC50 on a negative log10 scale, so that one unit is a factor of ten.

Source of the values: US10654837B2, “Sulphamoylaryl derivatives and use thereof as medicaments for the treatment of liver fibrosis” (Janssen Pharmaceutica NV, priority 2017, dated 2020).
